According to ChEMBL document CHEMBL4373743, “Selective apoptosis-inducing activity of synthetic hydrocarbon-stapled SOS1 helix with d-amino acids in H358 cancer cells expressing KRASG12C” (Eur J Med Chem, 2020):
The source made the active and inactive calls. No cut-off for these calls is given here. Bridge positions count the residues as written; N and C are the ends. Square brackets hold non-standard residues; d marks the D form. Peptide text beside a SMILES is read from it. S5 = C=CCCC[C@](C)(N)C(=O)O

Tests used:
NCI-H358 [1] = test: Induction of apoptosis in human NCI-H358 cells harboring KRAS G12C mutant assessed as increase in bax protein level at 40 uM incubated for 24 hrs by Western blot analysis; assay type: functional, cell-based
A549 [2] = test: Induction of apoptosis in human A549 cells harboring KRAS G12S mutant assessed as increase in caspase3 protein level at 40 uM incubated for 24 hrs by Western blot analysis; assay type: functional, cell-based
A549 [3] = test: Induction of cell cycle arrest in human A549 cells harboring KRAS G12S mutant assessed as accumulation at G2/M phase at 10 to 40 uM incubated for 24 hrs by PI staining based flow cytometric analysis; assay type: functional
NCI-H358 [4] = test: Induction of apoptosis in human NCI-H358 cells harboring KRAS G12C mutant assessed as viable cells at 20 uM incubated for 24 hrs by Annexin V-FITC/PI staining based flow cytometric analysis (reference value: 67.2%); assay type: functional; details: NCI-H358, 24 h, read-out: Activity
A549 [5] = test: Induction of cell cycle arrest in human A549 cells harboring KRAS G12S mutant assessed as as reduction in cyclin B1 protein expression at 40 uM incubated for 24 hrs by Western blot analysis; assay type: functional, cell-based
A549 [6] = test: Induction of cell cycle arrest in human A549 cells harboring KRAS G12S mutant assessed as reduction in CDK1 protein expression at 40 uM incubated for 24 hrs by Western blot analysis; assay type: functional, cell-based
A549 [7] = test: Induction of apoptosis in human A549 cells harboring KRAS G12S mutant assessed as late apoptotic cells at 10 uM incubated for 24 hrs by Annexin V-FITC/PI staining based flow cytometric analysis (reference value: 25.4%); assay type: functional
NCI-H358 [8] = test: Induction of apoptosis in human NCI-H358 cells harboring KRAS G12C mutant assessed as necrotic cells at 20 uM incubated for 24 hrs by Annexin V-FITC/PI staining based flow cytometric analysis (reference value: 0.28%); assay type: functional
NCI-H358 [9] = test: Induction of apoptosis in human NCI-H358 cells harboring KRAS G12C mutant assessed as decrease in bcl2 protein level at 40 uM incubated for 24 hrs by Western blot analysis; assay type: functional, cell-based
NCI-H358 [10] = test: Induction of apoptosis in human NCI-H358 cells harboring KRAS G12C mutant assessed as viable cells at 10 uM incubated for 24 hrs by Annexin V-FITC/PI staining based flow cytometric analysis (reference value: 67.2%); assay type: functional; details: NCI-H358, 24 h, read-out: Activity
NCI-H358 [11] = test: Induction of apoptosis in human NCI-H358 cells harboring KRAS G12C mutant assessed as early apoptotic cells at 2.5 uM incubated for 24 hrs by Annexin V-FITC/PI staining based flow cytometric analysis (reference value: 4.34%); assay type: functional
A549 [12] = test: Induction of apoptosis in human A549 cells harboring KRAS G12S mutant assessed as increase in bax protein level at 40 uM incubated for 24 hrs by Western blot analysis; assay type: functional, cell-based
NCI-H358 [13] = test: Induction of cell cycle arrest in human NCI-H358 cells harboring KRAS G12C mutant assessed as reduction in CDK1 protein expression at 40 uM incubated for 24 hrs by Western blot analysis; assay type: functional, cell-based
NCI-H358 [14] = test: Induction of cell cycle arrest in human NCI-H358 cells harboring KRAS G12C mutant assessed as accumulation at G2/M phase at 10 to 40 uM incubated for 24 hrs by PI staining based flow cytometric analysis (reference value: 11.08%); assay type: functional
A549 [15] = test: Induction of apoptosis in human A549 cells harboring KRAS G12S mutant assessed as decrease in bcl2 protein level at 40 uM incubated for 24 hrs by Western blot analysis; assay type: functional, cell-based
NCI-H358 [16] = test: Induction of apoptosis in human NCI-H358 cells harboring KRAS G12C mutant incubated for 24 hrs by Annexin V-FITC/PI staining based flow cytometric analysis; assay type: functional, cell-based
NCI-H358 [17] = test: Induction of apoptosis in human NCI-H358 cells harboring KRAS G12C mutant assessed as late apoptotic cells at 10 uM incubated for 24 hrs by Annexin V-FITC/PI staining based flow cytometric analysis (reference value: 28.2%); assay type: functional
A549 [18] = test: Induction of apoptosis in human A549 cells harboring KRAS G12S mutant assessed as late apoptotic cells at 2.5 uM incubated for 24 hrs by Annexin V-FITC/PI staining based flow cytometric analysis (reference value: 25.4%); assay type: functional
NCI-H358 [19] = test: Induction of apoptosis in human NCI-H358 cells harboring KRAS G12C mutant assessed as necrotic cells at 2.5 uM incubated for 24 hrs by Annexin V-FITC/PI staining based flow cytometric analysis (reference value: 0.28%); assay type: functional
[20] = test system: GTPase KRas (Homo sapiens), P01116 [G12C]; test: Binding affinity to biotinylated N-terminal His6-tagged recombinant KRAS G12C mutant (unknown origin) assessed as association constant by BLI method
Sequence of GTPase KRas (Homo sapiens), P01116 [G12C] (P01116 whole entry G12C): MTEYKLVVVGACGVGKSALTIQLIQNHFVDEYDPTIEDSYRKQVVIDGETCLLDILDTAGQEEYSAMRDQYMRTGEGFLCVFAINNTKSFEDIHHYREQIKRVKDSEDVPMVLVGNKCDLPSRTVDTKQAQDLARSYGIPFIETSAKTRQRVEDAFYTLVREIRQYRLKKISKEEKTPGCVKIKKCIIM

NCI-H358 [21] = test: Induction of apoptosis in human NCI-H358 cells harboring KRAS G12C mutant assessed as increase in caspase3 protein level at 40 uM incubated for 24 hrs by Western blot analysis; assay type: functional, cell-based
A549 [22] = test: Induction of apoptosis in human A549 cells harboring KRAS G12S mutant assessed as necrotic cells at 10 uM incubated for 24 hrs by Annexin V-FITC/PI staining based flow cytometric analysis (reference value: 0.16%); assay type: functional
NCI-H358 [23] = test: Antiproliferative activity against human NCI-H358 cells harboring KRAS G12C mutant incubated for 24 hrs by MTT assay; assay type: functional, cell-based
A549 [24] = test: Induction of apoptosis in human A549 cells harboring KRAS G12S mutant assessed as viable cells at 20 uM incubated for 24 hrs by Annexin V-FITC/PI staining based flow cytometric analysis (reference value: 68.3%); assay type: functional; details: A549, 24 h, read-out: Activity
A549 [25] = test: Antiproliferative activity against human A549 cells harboring KRAS G12S mutant at 0.37 to 10 uM incubated for 24 hrs by MTT assay; assay type: functional, cell-based
NCI-H358 [26] = test: Induction of apoptosis in human NCI-H358 cells harboring KRAS G12C mutant assessed as viable cells at 2.5 uM incubated for 24 hrs by Annexin V-FITC/PI staining based flow cytometric analysis (reference value: 67.2%); assay type: functional; details: NCI-H358, 24 h, read-out: Activity
NCI-H358 [27] = test: Induction of apoptosis in human NCI-H358 cells harboring KRAS G12C mutant assessed as necrotic cells at 10 uM incubated for 24 hrs by Annexin V-FITC/PI staining based flow cytometric analysis (reference value: 0.28%); assay type: functional
A549 [28] = test: Induction of apoptosis in human A549 cells harboring KRAS G12S mutant assessed as necrotic cells at 2.5 uM incubated for 24 hrs by Annexin V-FITC/PI staining based flow cytometric analysis (reference value: 0.16%); assay type: functional
A549 [29] = test: Induction of apoptosis in human A549 cells harboring KRAS G12S mutant assessed as viable cells at 10 uM incubated for 24 hrs by Annexin V-FITC/PI staining based flow cytometric analysis (reference value: 68.3%); assay type: functional; details: A549, 24 h, read-out: Activity
A549 [30] = test: Induction of apoptosis in human A549 cells harboring KRAS G12S mutant assessed as early apoptotic cells at 20 uM incubated for 24 hrs by Annexin V-FITC/PI staining based flow cytometric analysis (reference value: 6.09%); assay type: functional
[31] = test system: GTPase KRas (Homo sapiens), P01116 [G12C]; test: Inhibition of mant-GDP bound N-terminal His6-tagged recombinant KRAS G12C mutant (unknown origin) by fluorescence based assay

Ka [20]: 7.3 ×10³ /M.s
inhibition [31]: Dose-dependent effect
SMILES: CC[C@H](C)[C@H](NC(=O)CNC(=O)[C@H](Cc1ccccc1)NC(=O)[C@H](Cc1ccccc1)NC(=O)[C@H](CCCNC(=N)N)NC(=O)[C@H](CCCNC(=N)N)NC(C)=O)C(=O)N[C@@]1(C)CCC/C=C\CCC[C@@](C)(C(=O)N[C@@H](CC(C)C)C(=O)N[C@@H](CCCCN)C(=O)N[C@H](C(=O)N[C@@H](CCC(=O)O)C(=O)N[C@@H](CCC(=O)O)C(=O)NCC(=O)N[C@@H](CC(N)=O)C(=O)O)[C@@H](C)O)NC(=O)[C@H](CC(N)=O)NC(=O)[C@H](CC(=O)O)NC(=O)[C@H]([C@@H](C)O)NC(=O)[C@H](CC(C)C)NC(=O)[C@H](CC(=O)O)NC1=O (Ac-RRFFGI[S5]DLTDN[S5]LKTEEGN-OH; staple (Z) 7-13)
Activity (NCI-H358 [1]): Active
Activity (A549 [2]): inactive
Activity (A549 [3]): inactive
viability at 20 µM (NCI-H358 [4]): 46.7%
Activity (A549 [5]): inactive
Activity (A549 [6]): inactive
Activity (A549 [7]): 30.1%
Activity (NCI-H358 [8]): 0.21%
Activity (NCI-H358 [9]): Active
viability at 10 µM (NCI-H358 [10]): 52.5%
Activity (NCI-H358 [11]): 4.22%
Activity (A549 [12]): inactive
Activity (NCI-H358 [13]): Active
Activity (NCI-H358 [14]): 34.4%
Activity (A549 [15]): inactive
Activity (NCI-H358 [16]): Dose-dependent effect
Activity (NCI-H358 [17]): 40.8%
Activity (A549 [18]): 38.5%
Activity (NCI-H358 [19]): 0.14%
Activity (NCI-H358 [21]): Active
Activity (A549 [22]): 0.5%
Activity (NCI-H358 [23]): Dose-dependent effect
viability at 20 µM (A549 [24]): 67.3%
Activity (A549 [25]): inactive
viability at 2.5 µM (NCI-H358 [26]): 62.7%
Activity (NCI-H358 [27]): 0.26%
Activity (A549 [28]): 0.4%
viability at 10 µM (A549 [29]): 67.6%
Activity (A549 [30]): 1.68%
